From ChEMBL document CHEMBL1121778, “5,7-Dihydroxy-2-aminotetralin derivatives: synthesis and assessment of dopaminergic and adrenergic actions” (1981)
Activity calls are given as the source filed them. The rule behind the calls is not given here.

Key:
[1] = organism: Felis catus; assay: Potency relative to apomorphine.; type: functional
[2] = test system: Felis catus; assay: Percentage change in arterial pressure of the cat on intravenous administration of 0.033 umol/kg of the compound.; type: functional, Artery
[3] = organism: Felis catus; assay: Compound was tested for the inhibition of cat cardioaccelerator nerve stimulation, activity expressed as ED50.; type: functional
[4] = test system: Felis catus; assay: Percentage change in arterial pressure of the cat on intravenous administration of 0.003 umol/kg of the compound.; type: functional, Artery
[5] = test system: Felis catus; assay: Percentage change in arterial pressure of the cat on intravenous administration of 0.009 umol/kg of the compound.; type: functional, Artery
[6] = test system: Felis catus; assay: Change in heart rate(beats/min) of the cat on intravenous administration of 0.003 umol/kg of the compound.; type: functional
[7] = test system: Felis catus; assay: Change in heart rate(beats/min) of the cat on intravenous administration of 0.009 umol/kg of the compound.; type: functional
[8] = test system: Felis catus; assay: Change in heart rate(beats/min) of the cat on intravenous administration of 0.033 umol/kg of the compound.; type: functional
[9] = test system: Canis familiaris; assay: Compound was tested for increase in renal blood flow in dog anesthetized with sodium pentobarbitol (30 mg/kg, iv) and systemic blood pressure and heart rate were recorded; Inactive at 2 umol/kg; type: functional, organism-based; details: Canis lupus familiaris
[10] = test system: Felis catus; assay: %change in arterial pressure of the cat on intravenous administration 0.115 umol/kg of the compound.; type: functional, Artery
[11] = test system: Felis catus; assay: %change in arterial pressure of the cat on intravenous administration of 0.038 umol/kg the compound.; type: functional, Artery
[12] = test system: Felis catus; assay: change in heart rate(beats/min) of the cat on intravenous administration 0.038 umol/kg of the compound.; type: functional
[13] = test system: Felis catus; assay: change in heart rate(beats/min) of the cat on intravenous administration of 0.115 umol/kg of the compound.; type: functional
[14] = test system: Felis catus; assay: change in heart rate(beats/min) of the cat on intravenous administration of 0.38 umol/kg of the compound.; type: functional
[15] = test system: Felis catus; assay: %change in arterial pressure of the cat on intravenous administration of 0.38 umol/kg of the compound.; type: functional, Artery
[16] = test system: Felis catus; assay: Compound was tested for the inhibition of cat cardioaccelerator nerve stimulation; Inactive at 2 umol/kg iv; type: functional, organism-based
[17] = test system: Canis familiaris; assay: Compound was tested for emesis(active expulsion of fluid or solid matter)in dog at 2 umol/kg sc; No emesis produced; type: functional, organism-based; details: Canis lupus familiaris
[18] = test system: Felis catus; assay: Percentage change in arterial pressure of the cat on intravenous administration of 0.11 umol/kg of the compound.; type: functional, Artery
[19] = test system: Felis catus; assay: Percentage change in arterial pressure of the cat on intravenous administration of 0.33 umol/kg of the compound.; type: functional, Artery
[20] = test system: Felis catus; assay: Percentage change in arterial pressure of the cat on intravenous administration of 0.99 umol/kg of the compound.; type: functional, Artery
[21] = test system: Felis catus; assay: Change in heart rate(beats/min) of the cat on intravenous administration of 0.99 umol/kg of the compound.; type: functional
[22] = test system: Felis catus; assay: Compound was tested for the inhibition of cat cardioaccelerator nerve stimulation; […]; type: functional, organism-based
[23] = test system: Felis catus; assay: Change in heart rate(beats/min) of the cat on intravenous administration of 0.11 umol/kg of the compound.; type: functional
[24] = test system: Felis catus; assay: Change in heart rate(beats/min) of the cat on intravenous administration of 0.33 umol/kg of the compound.; type: functional
[25] = test system: Felis catus; assay: Percentage change in arterial pressure of the cat on intravenous administration of 0.01 umol/kg of the compound.; type: functional, Artery
[26] = test system: Felis catus; assay: Percentage change in arterial pressure of the cat on intravenous administration of 0.1 uM/kg of the compound.; type: functional, Artery
[27] = test system: Felis catus; assay: Change in heart rate(beats/min) of the cat on intravenous administration of 0.01 umol/kg of the compound.; type: functional
[28] = test system: Felis catus; assay: Change in heart rate(beats/min) of the cat on intravenous administration of 0.03 umol/kg of the compound.; type: functional
[29] = test system: Felis catus; assay: Change in heart rate(beats/min) of the cat on intravenous administration of 0.1 uM/kg of the compound.; type: functional
[30] = test system: Felis catus; assay: Percentage change in arterial pressure of the cat on intravenous administration of 0.03 umol/kg of the compound.; type: functional, Artery
[31] = organism: Felis catus; assay: Compound was tested for the inhibition of cat cardioaccelerator nerve stimulation; type: functional
[32] = test system: Felis catus; assay: Percentage change in arterial pressure of the cat on intravenous administration of 0.10 umol/kg of the compound.; type: functional, Artery
[33] = test system: Felis catus; assay: Change in heart rate(beats/min) of the cat on intravenous administration of 0.10 umol/kg of the compound.; type: functional
[34] = organism: Canis familiaris; assay: Compound was tested for emesis(active expulsion of fluid or solid matter)in dog; type: functional; details: Canis lupus familiaris
[35] = test system: Felis catus; assay: Percentage change in arterial pressure of the cat on intravenous administration of 0.032 umol/kg of the compound.; type: functional, Artery
[36] = test system: Felis catus; assay: Percentage change in arterial pressure of the cat on intravenous administration at 0.008 umol/kg; type: functional, Artery
[37] = organism: Felis catus; assay: Compound was tested for the inhibition of cat cardioaccelerator nerve stimulation,; type: functional
[38] = test system: Felis catus; assay: Change in heart rate(beats/min) of the cat on intravenous administration at 0.008 umol/kg; type: functional
[39] = test system: Felis catus; assay: Percentage change in arterial pressure of the cat on intravenous administration of 0.016 umol/kg of the compound.; type: functional, Artery
[40] = test system: Felis catus; assay: Change in heart rate(beats/min) of the cat on intravenous administration of 0.016 umol/kg of the compound.; type: functional
[41] = organism: Canis familiaris; assay: Compound was tested for emesis(active expulsion of fluid or solid matter)in dog, activity expressed as ED50.; type: functional; details: Canis lupus familiaris
[42] = test system: Felis catus; assay: Percentage change in arterial pressure of the cat on intravenous administration of 0.36 umol/kg of the compound.; type: functional, Artery
[43] = test system: Felis catus; assay: Percentage change in arterial pressure of the cat on intravenous administration of 1.09 umol/kg of uM/kg of the compound.; type: functional, Artery
[44] = test system: Felis catus; assay: Change in heart rate(beats/min) of the cat on intravenous administration of 1.09 umol/kg of the compound.; type: functional
[45] = test system: Felis catus; assay: Change in heart rate(beats/min) of the cat on intravenous administration of 0.36 umol/kg the compound.; type: functional

Br.CCCN(CCC)C1CCc2c(O)cc(O)cc2C1 (centres undefined)
Relative potency [1]: 0.95 | Change [2]: -27.2% | ED50 [3]: 0.035 µmol/kg | Change [4]: -12.2% | Change [5]: -17.2% | Heart rate [6]: -3.6 beats min-1 | Heart rate [7]: -4.8 beats min-1 | Heart rate [8]: -5.6 beats min-1 | Increase [9]: inactive

Br.NC1CCc2c(O)cc(O)cc2C1 (centres undefined)
Change [10]: 21.6% | Change [11]: 19.7% | Heart rate [12]: 0 beats min-1 | Heart rate [13]: 3.6 beats min-1 | Heart rate [14]: 17.6 beats min-1 | Change [15]: 30.5% | ED50 [16]: inactive | ED50 [17]: No emesis produced | Increase [9]: inactive

Br.CC(C)NC1CCc2c(O)cc(O)cc2C1 (centres undefined)
Change [18]: 16.9% | Change [19]: 19.7% | Change [20]: 25.2% | Heart rate [21]: 14.4 beats min-1 | ED50 [22]: inactive | Heart rate [23]: 3.2 beats min-1 | Heart rate [24]: 7.7 beats min-1 | ED50 [17]: inactive | Increase [9]: inactive

Br.CN(C)C1CCc2c(O)cc(O)cc2C1 (centres undefined)
Relative potency [1]: 1.45 | Change [25]: 4.1% | Change [26]: 23.2% | Heart rate [27]: 0 beats min-1 | Heart rate [28]: 0.6 beats min-1 | Heart rate [29]: 12.8 beats min-1 | Change [30]: 8% | ED50 [31]: 0.021 µmol/kg

Br.CCN(CC)C1CCc2c(O)cc(O)cc2C1 (centres undefined)
Relative potency [1]: 1.4 | Change [2]: -25% | Change [4]: -8.7% | Change [5]: -23% | Heart rate [6]: -2.1 beats min-1 | Heart rate [7]: -23 beats min-1 | Heart rate [8]: -25 beats min-1 | Increase [9]: inactive | ED50 [31]: 0.024 µmol/kg

Br.CCNC1CCc2c(O)cc(O)cc2C1 (centres undefined)
Relative potency [1]: 1.04 | Change [25]: -6.3% | Change [2]: -18.5% | Change [32]: -19.6% | Heart rate [27]: -6.6 beats min-1 | Heart rate [8]: -10.6 beats min-1 | Heart rate [33]: -6 beats min-1 | ED50 [34]: 0.36 µmol/kg | Increase [9]: inactive | ED50 [31]: 0.04 µmol/kg

CN1CCc2cccc3c2[C@H]1Cc1ccc(O)c(O)c1-3 [APOMORPHINE]
Relative potency [1]: 1 | Change [35]: -18.2% | Change [36]: -9.9% | ED50 [37]: 0.022 µmol/kg | Heart rate [38]: -4.3 beats min-1 | Change [39]: -11.5% | Heart rate [40]: -6.5 beats min-1 | ED50 [41]: 0.142 µmol/kg

Br.CNC1CCc2c(O)cc(O)cc2C1 (centres undefined)
Change [42]: 49.7% | Change [43]: 84.2% | Heart rate [44]: 44 beats min-1 | ED50 [16]: inactive | Heart rate [45]: 26.7 beats min-1 | ED50 [17]: No emesis produced | Increase [9]: inactive
